Laboratory results as given in US4556677A, “Alkane and alkene derivatives and their use” (Farmos Group Ltd., priority 1981, dated 1985).
pIC50: −log10 of the molar value. Counter-ions that a name gives are not always drawn. Like-named read-outs stand apart in the source and are kept apart here.

Key:
[1] = tested on: DMBA-induced rat mammary adenocarcinomas; experiment: antitumour effect in vivo against DMBA-induced rat mammary adenocarcinomas; settings: 10 mg/kg
Method: (§1) The anti-tumour effect was investigated in vivo against DMBA-induced rat mammary adenocarcinomas and transplantable mammary adenocarcinoma according to the following methods:
Mammary adenocarcinomas were induced by DMBA in 35-40 days old female rats. Treatment with the molecules to be investigated was started after palpable tumours had appeared. Tumour size and numbers of tumours were evaluated twice a week. Tumour sizes in the control group, treated with solvent, were compared with the test groups.
The antitumour effect in vivo against DMBA-induced mammary carcinomas was investigated as described earlier. […] Compound 2 at the dose of 7.5 mg/kg caused a 63% decrease in the size of tumours compared to the control.

[2] = tested on: transplantable rat mammary adenocarcinoma; experiment: effect on transplantable rat mammary adenocarcinoma; type: in vivo
Description: as §1
Transplantable rat mammary adenocarcinoma was developed by inoculating pieces of DMBA-induced carcinomas subcutaneously to healthy mature female rats. A tumor which expressed malignant growth was selected for further transplantations.
The effects of compounds mentioned earlier against transplantable rat mammary adenocarcinoma can be seen in table 4.
The figures in table 4 refer to relative sizes compared to controls which is 100.

estrogen receptors = target: T1, estrogen receptors (Rattus norvegicus, UniProt P06211); experiment: affinity to estrogen receptors, competition with 3H-labelled 17-β-estradiol (dextran-charcoal method); type: binding; settings: rat uterus cytosol, Table 1; read-out: Affinity (concentration of compound where 50% competition (inhibition) with 3H-estradiol occurred)
T1 construct: rat uterus cytosol preparation; from tissue; host or cells: rat uterus cytosol
T1 sequence (P06211 1-600): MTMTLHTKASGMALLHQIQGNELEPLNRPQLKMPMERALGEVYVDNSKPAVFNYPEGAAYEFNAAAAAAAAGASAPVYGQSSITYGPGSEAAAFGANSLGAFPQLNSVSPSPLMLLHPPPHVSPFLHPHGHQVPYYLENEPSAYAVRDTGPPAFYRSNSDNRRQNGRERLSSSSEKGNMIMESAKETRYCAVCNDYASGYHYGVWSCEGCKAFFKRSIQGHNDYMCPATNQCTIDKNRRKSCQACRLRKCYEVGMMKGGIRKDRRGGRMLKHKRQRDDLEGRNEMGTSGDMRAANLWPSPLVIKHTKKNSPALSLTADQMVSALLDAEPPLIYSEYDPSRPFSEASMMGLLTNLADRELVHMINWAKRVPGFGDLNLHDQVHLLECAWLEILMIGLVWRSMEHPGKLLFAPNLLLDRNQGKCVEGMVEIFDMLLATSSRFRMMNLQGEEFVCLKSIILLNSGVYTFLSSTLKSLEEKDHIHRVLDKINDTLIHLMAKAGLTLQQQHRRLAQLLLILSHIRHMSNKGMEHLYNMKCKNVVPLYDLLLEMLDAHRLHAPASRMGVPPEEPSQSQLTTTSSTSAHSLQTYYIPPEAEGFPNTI
Method: The affinity to estrogen receptors was determined by the ability of the molecules to compete with ^3 H-labelled 17-β-estradiol in rat uterus cytosol preparation. After incubation, receptor-bound and receptor-unbound ligands were separated by a known dextrancharcoal method. (Korenman, S. G.: "Comparative binding affinity of estrogens and its relation to estrogenic potency". Steroids 13: 163-177, 1969). […] The results in table 1 are shown as follows: | with ^3 H--estradiol occurred

immature mouse uterus [3] = experiment: antiestrogenic effect in vivo, inhibition of oestradiol induced uterus weight increase in immature mice; settings: for antiestrogenic effect (in words): immature mice
Method: (§2) The estrogen-antiestrogen (progesterone-antiprogesterone) effect in vivo was determined as follows:
The antiestrogenic effects of the molecules were determined in a similar manner in immature mice. In this case, the ability of the molecules to inhibit estrogen-induced uterus weight increase was investigated, too.
The compound 1 at a dose of 0.5 mg/kg caused a 50% inhibition of oestradiol induced effect on mouse uterus.
(§3) In Table 2 a summary of the oestrogenic/antioestrogenic and progestanic/antiprogestanic effect of some of the compounds can be seen. The percentages refer to increase/reduction in mice uterus weights.

immature mouse uterus [4] = experiment: estrogenic effect in vivo, immature mouse uterus weight; settings: for oestrogenic effect, % less than that of oestradiol 0.05 mg/kg: 0.5 mg/kg, s.c., immature mice; for estrogenic effect (in words): immature mouse uterus weight
Method: as §2
The estrogenic properties of the molecules were determined by administering the molecules, suspended in sesam oil, subcutaneously to 21 days old immature mice on three consecutive days. The mice were killed on the fourth day and the uterus was weighed. Estradiol (positive control) increases the weight of the uterus. The weight correlates with the estrogenic effect of the molecules.
The estrogenic effect of compounds of the invention as measured by their ability to increase the weight of immature mouse uterus was usually far less than that of oestradiol, the positive control. […] At the dose of 0.5 mg/kg the oestrogenic effect of compound 1, 7 and 8 were respectively 20%, 75% and 83% less and at the dose of 5 mg/kg the oestrogenic effect of compound 2 was 60% less than that of oestradiol 0.05 mg/kg.
as §3

[5] = tested on: MCF-7 human mammary adenocarcinoma cell line; experiment: anti-tumour effect in vitro, growth of MCF-7 cells (bioluminescence ATP assay); type: cell-based; settings: MCF-7, Table 3, read-out: Antitumour effect (IC50 = concentration of compound where 50% inhibition of cell growth could be seen)
Method: The anti-tumour effect was studied in vitro as follows:
The growth of MCF-7 cell line (human mammary adenocarcinoma, known to be estrogen-dependent) was evaluated in the presence or absence of estradiol, medroxyprogesterone acetate or the molecules to be investigated. Combinations of molecule plus estradiol and molecule plus medroxyprogesterone were also studied. The amount of living cells after 4 h, 24 h and 48 h incubations were determined by bioluminescence assay (intracellular ATP determination).
The antitumour effects of the compounds had been tested in vitro against MCF-7 human mammary adenocarcinoma cell line and in vivo against DMBA-induced rat mammary adenocarcinomas and transplantable mammary adenocarcinoma.
In table 3 the antitumour effects of certain compounds can be seen.

mouse uterus [6] = experiment: antiprogestanic/synergistic effect in vivo, given together with medroxyprogesterone acetate, mouse uterus weight
Method: as §2
(§4) The (anti)progestanic effects were studied in a similar manners as the estrogenic ones. Medroxyprogesterone acetate, which decreases uterus weight, was used as reference.
(§5) The progestanic and antiprogestanic effects of compounds were measured as described earlier. The compound No. 2 reduced the weight of mouse uterus by 49% compared to control while medroxyprogesterone acetate gave 40% reduction.
as §3

mouse uterus [7] = experiment: progestanic effect in vivo, reduction of mouse uterus weight
Method: as §2, §4, §5, §3

[8] = together with medroxyprogesterone acetate
[9] = Table 2, 0.5 mg/kg, given alone
[10] = Table 2, 0.5 mg/kg, with medroxyprogesterone acetate 0.06 mg/kg

CC/C(=C(/c1ccccc1)c1ccc(O)cc1)C1CCCC1 [Compound 1, (E)--2-cyclopentyl-1-(p-hydroxyphenyl)-1-phenyl-1-butene]
decrease in size of tumours compared to the control [1]: 75% | growth of the tumours (in words) [1]: the growth of the tumours was slowed | number of the tumours (in words) [1]: the number of the tumours was decreasing | relative tumour size compared to controls which is 100 ([2]; 1.0 mg/kg): 80 | relative tumour size compared to controls which is 100 ([2]; 5.0 mg/kg): 77 | relative tumour size compared to controls which is 100 ([2]; 10.0 mg/kg): 58 | relative tumour size compared to controls which is 100 ([2]; 20.0 mg/kg): 64 | relative tumour size compared to controls which is 100 ([2]; 40.0 mg/kg): 40 | pIC50 (estrogen receptors): 6.00 to 7.00 | inhibition of oestradiol induced effect on mouse uterus (immature mouse uterus [3]; 0.5 mg/kg): 50% | oestrogenic effect, % less than that of oestradiol 0.05 mg/kg (immature mouse uterus [4]): 20% | estrogenic effect (in words) (immature mouse uterus [4]): dose dependent | pIC50 ([5]; Homo sapiens, MCF7): 5.30 to 6.00

CC/C(=C(\c1ccccc1)c1ccc(O)cc1)C1CCCC1 [Compound 3, (Z)-2-cyclopentyl-1-(p-hydroxyphenyl)-1-phenyl-1-butene]
pIC50 (estrogen receptors): 5.00 to 7.00 | pIC50 ([5]; Homo sapiens, MCF7): 5.30 to 6.00

CCC(C1CCCC1)C(c1ccccc1)c1ccc(O)cc1 (stereo not shown) [Compound 4, 2-cyclopentyl-1-(p-hydroxyphenyl)-1-phenylbutane]
pIC50 (estrogen receptors): 6.00 to 7.00 | pIC50 ([5]; Homo sapiens, MCF7): 5.30 to 6.00

CCC(C1CCCC1)C(c1ccccc1)c1ccc(O)cc1 (stereo not shown) [Compound 5, 2-cyclopentyl-1-(p-hydroxyphenyl)-1-phenylbutane]
antiestrogenic effect (in words) (immature mouse uterus [3]): not antiestrogenic | antiprogestanic / synergistic effect with medroxyprogesterone acetate (in words) (mouse uterus [6]; [8]): slight inhibition of medroxyprogesterone acetate produced effect | estrogenic effect (in words) (immature mouse uterus [4]): did not possess any estrogenic effects of their own | pIC50 [5]: 5.30 to 6.00 | progestanic effect (in words) (mouse uterus [7]; given alone): did not possess progestanic effects

CCC(C1CCCC1)C(c1ccccc1)c1ccc(O)cc1 (stereo not shown) [Compound 6, 2-cyclopentyl-1-(p-hydroxyphenyl)-1-phenylbutane]
antiestrogenic effect (in words) (immature mouse uterus [3]): not antiestrogenic | antiprogestanic / synergistic effect with medroxyprogesterone acetate (in words) (mouse uterus [6]; [8]): slight inhibition of medroxyprogesterone acetate produced effect | estrogenic effect (in words) (immature mouse uterus [4]): did not possess any estrogenic effects of their own | pIC50 [5]: 5.30 to 6.00 | progestanic effect (in words) (mouse uterus [7]; given alone): did not possess progestanic effects

CCC(=C(c1ccc(O)cc1)c1ccc(OCCN(C)C)cc1)C1CCCC1 [Compound 7, 2-cyclopentyl-1-[p-(N,N-dimethyl-2-aminoethoxy)phenyl]-1-(p-hydroxyphenyl)-1-butene]
pIC50 (estrogen receptors): 6.00 to 7.00 | inhibition of oestradiol induced effect on mouse uterus (immature mouse uterus [3]; 5 mg/kg): 48% | Given with oestradiol: reduction in mice uterus weight (immature mouse uterus [3]; Table 2, 5 mg/kg, with oestradiol 0.05 mg/kg): 48% | antiprogestanic / synergistic effect with medroxyprogesterone acetate (in words) (mouse uterus [6]; [8]): clear dose dependant antiprogestanic effect | oestrogenic effect, % less than that of oestradiol 0.05 mg/kg (immature mouse uterus [4]): 75% | Given alone: oestrogenic effect (in words) (immature mouse uterus [4]; [9]): oestrogenic | estrogenic effect (in words) (immature mouse uterus [4]): dose dependent | pIC50 ([5]; Homo sapiens, MCF7): 5.30 to 6.00 | progestanic effect (in words) (mouse uterus [7]; given alone): did not posses any progestanic effects of its own

CCC(c1ccc(O)cc1)C(CC)C1CCCC1 (stereo not shown) [Compound 9, 3-cyclopentyl-4-(p-hydroxyphenyl)-hexane]
pIC50 (estrogen receptors): 6.00 to 7.00 | pIC50 ([5]; Homo sapiens, MCF7): 5.00 to 6.00

CC/C(=C(\c1ccccc1)c1ccc(OCCNC)cc1)C1CCCC1 [Compound 10, (Z)--2-cyclopentyl-1-[p-(N--methyl-2-aminoethoxy)-phenyl]-1-phenyl-1-butene, hydrochloride]
pIC50 (estrogen receptors): 4.00 to 5.00 | pIC50 ([5]; Homo sapiens, MCF7): 5.00 to 5.30

CCC(=C(c1ccc(OC)cc1)c1ccc(OCCN(C)C)cc1)C1CCCC1 [Compound 11, 2-cyclopentyl-1-[p-(N,N-dimethyl-2-aminoethoxy)phenyl]-1-(p-methoxyphenyl)-1-butene]
relative tumour size compared to controls which is 100 ([2]; 1.0 mg/kg): 87 | relative tumour size compared to controls which is 100 ([2]; 5.0 mg/kg): 87 | relative tumour size compared to controls which is 100 ([2]; 10.0 mg/kg): 50 | pIC50 (estrogen receptors): 4.00 to 5.00 | Given with medroxyprogesterone acetate: effect (in words) (mouse uterus [6]; [10]): synergistic | Given with medroxyprogesterone acetate: reduction in mice uterus weight (mouse uterus [6]; [10]): 67% | reduction of mouse uterus weight together with medroxyprogesterone acetate (mouse uterus [6]; together with medroxyprogesterone acetate, vs 40% for the acetate alone): 67% | pIC50 ([5]; Homo sapiens, MCF7): 5.00 to 6.00 | Given alone: progestanic effect (in words) (mouse uterus [7]; [9]): progestanic | Given alone: reduction in mice uterus weight (mouse uterus [7]; [9]): 20% | progestanic effect (in words) (mouse uterus [7]; given alone): purely due to its progestanic effect | reduction of mouse uterus weight (mouse uterus [7]; given alone, 0.5 mg/kg): 20%

CCC(CO)C(CC)c1ccc(O)cc1 (stereo not shown) [Compound 12, 2-ethyl-3-(p-hydroxyphenyl)-1-pentanol]
pIC50 (estrogen receptors): 4.00 to 5.00

CC(=O)O[C@]1(C(C)=O)CC[C@H]2[C@@H]3C[C@H](C)C4=CC(=O)CC[C@]4(C)[C@H]3CC[C@@]21C [medroxyprogesterone acetate, Medroxyprogesterone acetate, reference compound]
decrease of mouse uterus weight by medroxyprogesterone acetate alone (mouse uterus [7]; reference compared with compound 8): 20% | reduction of mouse uterus weight by medroxyprogesterone acetate alone (mouse uterus [7]; reference compared with compounds 2 and 11): 40%
